Drawing on the Kinase Knowledgebase extract (Sharma et al. 2016), this text covers IC50 for 50 compounds.

One assay deals with PIK3CD (Human) (UniProt O00329). Description: Assessment of PIK3CD Kinase Activity.
Another assay deals with PIK3CA (human) (UniProt P42336). Description: Assessment of PIK3CA Kinase Activity.
In the next assay the target is PIK3CG (human) (UniProt P48736). Description: Assessment of PIK3CG Kinase Activity.
Another assay concerns the target PIK3CB (Human) (UniProt P42338). Description: Assessment of PIK3CB Kinase Activity.

Structures are written as SMILES. A value given as a limit tells only on which side of the number the result lay.

Sequence of PIK3CG (human) (P48736 whole entry, looked up): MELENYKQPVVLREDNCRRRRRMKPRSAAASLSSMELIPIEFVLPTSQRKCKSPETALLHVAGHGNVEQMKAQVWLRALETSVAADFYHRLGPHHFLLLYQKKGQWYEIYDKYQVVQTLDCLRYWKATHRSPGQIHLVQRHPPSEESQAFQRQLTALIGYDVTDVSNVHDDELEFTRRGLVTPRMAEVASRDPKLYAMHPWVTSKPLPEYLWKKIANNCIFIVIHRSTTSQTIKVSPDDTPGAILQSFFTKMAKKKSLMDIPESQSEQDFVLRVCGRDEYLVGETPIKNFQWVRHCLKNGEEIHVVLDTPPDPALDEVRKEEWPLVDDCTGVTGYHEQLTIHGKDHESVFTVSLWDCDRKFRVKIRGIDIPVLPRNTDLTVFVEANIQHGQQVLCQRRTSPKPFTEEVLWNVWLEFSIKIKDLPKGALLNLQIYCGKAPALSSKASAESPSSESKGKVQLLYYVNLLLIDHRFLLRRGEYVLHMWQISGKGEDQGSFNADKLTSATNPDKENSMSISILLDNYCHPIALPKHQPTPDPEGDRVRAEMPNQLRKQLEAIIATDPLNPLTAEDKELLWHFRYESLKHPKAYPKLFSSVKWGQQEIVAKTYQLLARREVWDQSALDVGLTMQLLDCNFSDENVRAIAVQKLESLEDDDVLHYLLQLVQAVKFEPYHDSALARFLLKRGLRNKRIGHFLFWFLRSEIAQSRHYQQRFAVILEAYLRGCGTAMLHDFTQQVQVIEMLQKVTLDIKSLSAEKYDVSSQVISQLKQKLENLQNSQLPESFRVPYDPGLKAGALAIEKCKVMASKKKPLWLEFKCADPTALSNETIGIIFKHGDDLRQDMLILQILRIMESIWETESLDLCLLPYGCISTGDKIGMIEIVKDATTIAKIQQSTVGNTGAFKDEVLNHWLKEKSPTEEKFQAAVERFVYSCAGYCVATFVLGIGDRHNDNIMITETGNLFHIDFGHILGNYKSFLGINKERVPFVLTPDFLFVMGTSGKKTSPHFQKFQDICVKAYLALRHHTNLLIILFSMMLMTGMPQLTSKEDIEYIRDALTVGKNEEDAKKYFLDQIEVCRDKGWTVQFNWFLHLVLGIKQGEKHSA
Sequence of PIK3CA (human) (P42336 whole entry, looked up): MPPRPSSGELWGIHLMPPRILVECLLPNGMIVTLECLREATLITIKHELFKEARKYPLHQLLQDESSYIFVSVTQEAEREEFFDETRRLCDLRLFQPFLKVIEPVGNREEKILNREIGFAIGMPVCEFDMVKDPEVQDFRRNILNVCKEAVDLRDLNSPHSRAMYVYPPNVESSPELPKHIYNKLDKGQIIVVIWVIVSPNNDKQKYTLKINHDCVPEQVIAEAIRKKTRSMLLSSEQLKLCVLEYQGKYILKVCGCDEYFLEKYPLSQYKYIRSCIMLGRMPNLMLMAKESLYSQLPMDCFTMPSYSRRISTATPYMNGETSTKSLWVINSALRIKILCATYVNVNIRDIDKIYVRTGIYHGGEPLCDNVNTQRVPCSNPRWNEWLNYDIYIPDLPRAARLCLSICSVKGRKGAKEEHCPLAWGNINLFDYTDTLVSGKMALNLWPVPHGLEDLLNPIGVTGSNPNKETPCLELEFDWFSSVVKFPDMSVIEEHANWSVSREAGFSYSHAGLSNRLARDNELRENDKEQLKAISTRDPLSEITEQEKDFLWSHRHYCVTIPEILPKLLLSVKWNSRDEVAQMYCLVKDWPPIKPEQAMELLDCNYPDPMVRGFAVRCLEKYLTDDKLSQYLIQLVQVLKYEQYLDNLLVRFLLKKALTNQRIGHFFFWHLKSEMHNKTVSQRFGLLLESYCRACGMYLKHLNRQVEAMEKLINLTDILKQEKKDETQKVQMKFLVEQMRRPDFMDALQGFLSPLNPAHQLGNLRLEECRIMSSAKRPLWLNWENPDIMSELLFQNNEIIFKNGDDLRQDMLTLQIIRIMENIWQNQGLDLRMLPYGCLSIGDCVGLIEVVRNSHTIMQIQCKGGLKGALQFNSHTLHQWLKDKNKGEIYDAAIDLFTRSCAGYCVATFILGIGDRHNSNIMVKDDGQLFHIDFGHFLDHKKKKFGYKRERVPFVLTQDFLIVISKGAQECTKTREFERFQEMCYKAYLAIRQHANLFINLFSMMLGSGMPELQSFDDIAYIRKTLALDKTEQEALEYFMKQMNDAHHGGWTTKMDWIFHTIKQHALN
Sequence of PIK3CD (Human) (O00329 whole entry, looked up): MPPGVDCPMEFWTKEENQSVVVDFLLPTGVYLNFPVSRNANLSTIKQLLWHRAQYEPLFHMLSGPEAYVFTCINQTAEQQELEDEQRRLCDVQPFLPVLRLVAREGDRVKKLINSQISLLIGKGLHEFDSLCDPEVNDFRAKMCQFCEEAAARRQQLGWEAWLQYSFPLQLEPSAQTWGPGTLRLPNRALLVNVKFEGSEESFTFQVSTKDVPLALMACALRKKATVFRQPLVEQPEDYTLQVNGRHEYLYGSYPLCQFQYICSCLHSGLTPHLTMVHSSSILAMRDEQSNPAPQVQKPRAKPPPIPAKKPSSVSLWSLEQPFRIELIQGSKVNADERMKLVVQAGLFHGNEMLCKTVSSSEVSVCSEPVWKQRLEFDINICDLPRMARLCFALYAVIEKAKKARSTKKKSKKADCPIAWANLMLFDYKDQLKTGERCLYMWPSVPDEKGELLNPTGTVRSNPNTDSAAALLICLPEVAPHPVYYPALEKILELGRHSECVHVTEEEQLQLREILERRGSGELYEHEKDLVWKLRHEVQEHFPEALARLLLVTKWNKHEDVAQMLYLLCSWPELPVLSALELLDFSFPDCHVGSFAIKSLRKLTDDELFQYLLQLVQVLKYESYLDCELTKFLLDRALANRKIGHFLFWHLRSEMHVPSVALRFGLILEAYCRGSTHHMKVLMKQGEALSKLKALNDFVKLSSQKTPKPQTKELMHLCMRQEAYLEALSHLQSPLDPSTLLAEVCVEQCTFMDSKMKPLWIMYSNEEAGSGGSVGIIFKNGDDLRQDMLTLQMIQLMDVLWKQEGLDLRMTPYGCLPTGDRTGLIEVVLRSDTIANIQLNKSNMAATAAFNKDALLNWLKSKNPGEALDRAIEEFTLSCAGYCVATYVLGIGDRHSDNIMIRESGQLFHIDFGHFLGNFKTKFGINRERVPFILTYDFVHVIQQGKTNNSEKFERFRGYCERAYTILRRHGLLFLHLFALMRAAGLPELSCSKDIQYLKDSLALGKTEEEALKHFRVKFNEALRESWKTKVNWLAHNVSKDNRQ
Sequence of PIK3CB (Human) (P42338 whole entry, looked up): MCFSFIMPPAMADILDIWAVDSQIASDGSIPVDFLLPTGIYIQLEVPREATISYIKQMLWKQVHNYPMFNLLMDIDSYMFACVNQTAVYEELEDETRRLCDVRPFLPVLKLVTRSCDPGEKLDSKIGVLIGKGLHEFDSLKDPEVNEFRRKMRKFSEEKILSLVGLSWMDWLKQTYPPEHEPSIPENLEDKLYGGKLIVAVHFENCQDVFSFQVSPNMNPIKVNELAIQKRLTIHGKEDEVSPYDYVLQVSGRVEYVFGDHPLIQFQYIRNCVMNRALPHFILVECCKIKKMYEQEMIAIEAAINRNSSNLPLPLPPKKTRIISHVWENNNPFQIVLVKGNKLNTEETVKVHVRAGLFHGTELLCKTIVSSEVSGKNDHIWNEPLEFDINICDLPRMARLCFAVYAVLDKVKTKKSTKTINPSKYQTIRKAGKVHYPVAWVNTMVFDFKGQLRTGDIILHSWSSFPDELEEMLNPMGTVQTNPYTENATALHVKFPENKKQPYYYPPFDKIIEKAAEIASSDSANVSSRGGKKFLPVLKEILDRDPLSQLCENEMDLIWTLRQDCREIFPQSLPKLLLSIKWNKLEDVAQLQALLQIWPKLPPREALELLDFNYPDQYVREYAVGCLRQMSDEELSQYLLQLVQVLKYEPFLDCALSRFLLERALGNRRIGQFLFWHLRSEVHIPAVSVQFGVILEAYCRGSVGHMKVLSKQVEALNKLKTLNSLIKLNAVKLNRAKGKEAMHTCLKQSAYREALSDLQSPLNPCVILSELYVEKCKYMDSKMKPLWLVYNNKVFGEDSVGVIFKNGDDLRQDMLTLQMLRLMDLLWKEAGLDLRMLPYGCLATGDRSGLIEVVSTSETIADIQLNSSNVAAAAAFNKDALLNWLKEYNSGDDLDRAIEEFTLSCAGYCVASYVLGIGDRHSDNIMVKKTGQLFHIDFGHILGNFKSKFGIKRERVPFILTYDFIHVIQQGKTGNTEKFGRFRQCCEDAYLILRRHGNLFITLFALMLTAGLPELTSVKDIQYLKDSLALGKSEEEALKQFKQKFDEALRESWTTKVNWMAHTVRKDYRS

Take `COc1ccc(CNc2nc(N[C@@H](C)c3cc4cccc(-c5cnc(OC)nc5)c4c(=O)n3-c3ccccc3)c3ncccc3n2)cc1`: the IC50 is 0.1 to 1 µM against PIK3CD (Human), greater than 10 µM against PIK3CA (human) and 0.1 to 1 µM against PIK3CG (human).

Consider `C[C@H](Nc1ncnc2ccnn12)c1cc2cccc(Cl)c2c(=O)n1-c1cccc(F)c1`, for which the IC50 against PIK3CD (Human) is less than 0.1 µM; against PIK3CA (human), greater than 10 µM; against PIK3CG (human), 0.1 to 1 µM.

For the compound `Cc1nc2c(N[C@@H](C)c3cc4cccc(C(F)(F)F)c4c(=O)n3-c3ccccc3)ncnc2s1`, the IC50 against PIK3CD (Human), against PIK3CA (human) and against PIK3CB (Human) was greater than 10 µM each time.

For the compound `C[C@H](Nc1c(C#N)cnc2cccnc12)c1cc2cccc(Cl)c2c(=O)n1-c1ccccc1`, the IC50 against PIK3CD (Human), on PIK3CA (human) and against PIK3CB (Human) was greater than 10 µM throughout.

Turning to `Cc1cn2nccc(N[C@@H](C)c3cc4cccc(C(F)(F)F)c4c(=O)n3-c3ccccc3)c2n1`, the IC50 on PIK3CD (Human), against PIK3CA (human) and against PIK3CB (Human) was greater than 10 µM throughout.

Turning to `C[C@H](Nc1nc(N)nc2nccnc12)c1cc2cccc(Cl)c2c(=O)n1-c1ccccc1`, the values for the IC50 on PIK3CD (Human), against PIK3CA (human) and against PIK3CG (human) were 0.1 to 1 µM, greater than 10 µM and less than 0.1 µM, respectively.

With `C[C@H](Nc1ncnc2[nH]cnc12)c1cc2scc(C(F)(F)F)c2c(=O)n1-c1ccccc1`, the IC50 on PIK3CD (Human), against PIK3CA (human) and at PIK3CB (Human) was 0.1 to 1 µM throughout.

With `C[C@H](Nc1ncnc2[nH]nc(C#N)c12)c1cc2cccc(Cl)c2c(=O)n1-c1ccccc1`, the IC50 was less than 0.1 µM against PIK3CD (Human), greater than 10 µM on PIK3CA (human) and less than 0.1 µM against PIK3CG (human).

For the compound `Cc1cc(-c2cccc3cc([C@H](C)Nc4ncnc5cccnc45)n(-c4ccccc4)c(=O)c23)ccn1`, the IC50 against PIK3CD (Human) was less than 0.1 µM; against PIK3CA (human), 0.1 to 1 µM; on PIK3CG (human) it was less than 0.1 µM.

On to `C[C@H](Nc1ncnc(N)n1)c1cc2cccc(Cl)c2c(=O)n1-c1cccc(F)c1`, for which the IC50 is 0.1 to 1 µM at PIK3CD (Human), greater than 10 µM against PIK3CA (human) and greater than 10 µM at PIK3CB (Human).

`C[C@H](Nc1nc(N)nc2cccnc12)c1cc2cccc(-c3cnc4ccccc4c3)c2c(=O)n1-c1ccccc1`: the results for the IC50 on PIK3CD (Human), against PIK3CA (human) and against PIK3CG (human) were less than 0.1 µM, 0.1 to 1 µM and less than 0.1 µM, respectively.

Turning to `C[C@H](Nc1c(C#N)cnc2cccnc12)c1cc2cccc(Cl)c2c(=O)n1-c1cccc(F)c1`, the IC50 on PIK3CD (Human), at PIK3CA (human) and against PIK3CB (Human) was greater than 10 µM each time.

For the compound `C[C@H](Nc1cc(Cl)nn2ccnc12)c1cc2cccc(-c3cnn(C)c3)c2c(=O)n1C1CC1`, the IC50 against PIK3CA (human) and on PIK3CB (Human) was greater than 10 µM each time.

As for `Cc1cn2nccc(N[C@@H](C)c3cc4cccc(Cl)c4c(=O)n3-c3cccc(F)c3)c2n1`, the IC50 against PIK3CA (human) and on PIK3CB (Human) was greater than 10 µM throughout.

As for `Cc1cc(-c2cccc3nc([C@H](C)Nc4nc(N)nc5cccnc45)n(-c4ccccc4)c(=O)c23)ccn1`, the IC50 is less than 0.1 µM against PIK3CD (Human), 0.1 to 1 µM on PIK3CA (human) and less than 0.1 µM against PIK3CG (human).

On to `C[C@H](Nc1nc(N)ncc1C(F)(F)F)c1cc2cccc(C(F)(F)F)c2c(=O)n1-c1ccccc1`, for which the IC50 was less than 0.1 µM against PIK3CD (Human), greater than 10 µM on PIK3CA (human) and less than 0.1 µM at PIK3CG (human).

As to `C[C@H](Nc1ccnc2ccnn12)c1cc2cccc(C(F)(F)F)c2c(=O)n1-c1cccc(F)c1`, the IC50 against PIK3CD (Human) is less than 0.1 µM; at PIK3CA (human) it was greater than 10 µM; on PIK3CG (human) it was less than 0.1 µM.

Consider `C[C@H](Nc1cc(O)nc2cccnc12)c1cc2cccc(Cl)c2c(=O)n1-c1ccccc1`, for which the IC50 at PIK3CA (human) and on PIK3CB (Human) was greater than 10 µM each time.

As for `C[C@H](Nc1ncnc2cccnc12)c1cc2scc(C(F)(F)F)c2c(=O)n1-c1ccccc1`, the IC50 against PIK3CD (Human) is less than 0.1 µM; on PIK3CA (human) it was greater than 10 µM; on PIK3CB (Human), greater than 10 µM.

Consider `C[C@H](Nc1c(C#N)cnc2cccnc12)c1cc2cccc(-c3cnn(C)c3)c2c(=O)n1-c1ccccc1`, for which the IC50 against PIK3CD (Human), on PIK3CA (human) and against PIK3CB (Human) was greater than 10 µM in each case.

Turning to `Cc1cn2nccc(N[C@@H](C)c3cc4cccc(-c5cnn(C)c5)c4c(=O)n3-c3ccccc3)c2n1`, the half-maximal inhibitory concentration (IC50) against PIK3CA (human) and on PIK3CB (Human) was greater than 10 µM in each case.

For `C[C@H](Nc1ncnc2cccnc12)c1cc2cccc(-c3cnc(N)nc3)c2c(=O)n1-c1ccccc1`, the IC50 against PIK3CD (Human) was less than 0.1 µM; against PIK3CA (human), 0.1 to 1 µM; on PIK3CG (human), less than 0.1 µM.

On to `C[C@H](Nc1ncnc2cccnc12)c1cc2cccc(-c3cnn(C)c3)c2c(=O)n1C`, for which the IC50 against PIK3CA (human) and against PIK3CB (Human) was greater than 10 µM throughout.

In the case of `Cc1cn2nccc(N[C@@H](C)c3cc4cccc(Cl)c4c(=O)n3-c3ccccc3)c2n1`, the IC50 against PIK3CA (human) and against PIK3CB (Human) was greater than 10 µM in each case.

`C[C@H](Nc1nc(Cl)nc2scnc12)c1cc2cccc(C(F)(F)F)c2c(=O)n1-c1ccccc1`: the figures for the IC50 against PIK3CD (Human), against PIK3CA (human) and at PIK3CG (human) were less than 0.1 µM, greater than 10 µM and less than 0.1 µM, respectively.

As for `Cc1cc(-c2cccc3cc([C@H](C)Nc4nc(N)nc5cccnc45)n(-c4ccccc4)c(=O)c23)ccn1`, the half-maximal inhibitory concentration (IC50) on PIK3CD (Human) is less than 0.1 µM; at PIK3CA (human) it was 0.1 to 1 µM; against PIK3CG (human), less than 0.1 µM.

For `C[C@H](Nc1ncnc2ccnn12)C1=Cc2cccc(Cl)c2C(C(=O)N2CCOCC2)N1` (stereo not given in full), the IC50 against PIK3CD (Human) was 0.1 to 1 µM; against PIK3CA (human), greater than 10 µM.

On to `Cc1ncc(-c2cccc3cc([C@H](C)Nc4nc(N)nc5cccnc45)n(-c4ccccc4)c(=O)c23)s1`, for which the IC50 on PIK3CD (Human) was less than 0.1 µM; against PIK3CA (human) it was 0.1 to 1 µM; on PIK3CG (human) it was less than 0.1 µM.

With `Cc1cncc(-c2cccc3cc([C@H](C)Nc4nc(N)nc5cccnc45)n(-c4ccccc4)c(=O)c23)c1`, the IC50 against PIK3CD (Human) is less than 0.1 µM; on PIK3CA (human), 0.1 to 1 µM; at PIK3CG (human), less than 0.1 µM.

`C[C@H](Nc1ccnn2ccnc12)c1cc2cccc(Cl)c2c(=O)n1CCN1CCCC1`: the IC50 against PIK3CA (human) and on PIK3CG (human) was greater than 10 µM each time.

`COc1cncc(-c2cccc3cc([C@H](C)Nc4nc(N)nc5cccnc45)n(-c4ccccc4)c(=O)c23)c1`: the values for the IC50 on PIK3CD (Human), against PIK3CA (human) and at PIK3CG (human) were less than 0.1 µM, 0.1 to 1 µM and less than 0.1 µM, respectively.

Turning to `C[C@H](Nc1ncnc2ccnn12)c1cc2cccc(C(F)(F)F)c2c(=O)n1-c1ccccc1`, the IC50 against PIK3CD (Human) was less than 0.1 µM; at PIK3CA (human), greater than 10 µM; on PIK3CG (human) it was less than 0.1 µM.

Turning to `C[C@H](Nc1nc(N)ncc1C(F)(F)F)c1cc2cccc(C(F)(F)F)c2c(=O)n1-c1cccc(F)c1`, the results for the concentration for half-maximal inhibition (IC50) against PIK3CD (Human), on PIK3CA (human) and on PIK3CG (human) were less than 0.1 µM, greater than 10 µM and less than 0.1 µM, respectively.

In the case of `C[C@H](Nc1nc(Cl)nc2nccnc12)c1cc2cccc(Cl)c2c(=O)n1-c1ccccc1`, the IC50 against PIK3CA (human) and on PIK3CB (Human) was greater than 10 µM throughout.

Take `C[C@H](Nc1ccnc2ccnn12)c1cc2cccc(Cl)c2c(=O)n1CCN1CCCC1`: the IC50 at PIK3CA (human) and on PIK3CG (human) was greater than 10 µM in each case.

Take `Cc1cccc2cc([C@H](C)Nc3nc(N)nc4cccnc34)n(-c3cccc(F)c3)c(=O)c12`: the IC50 is less than 0.1 µM against PIK3CD (Human), 0.1 to 1 µM on PIK3CA (human) and less than 0.1 µM against PIK3CG (human).

Consider `C[C@H](Nc1cc(Cl)nn2ccnc12)c1cc2cccc(C(F)(F)F)c2c(=O)n1-c1cccc(F)c1`, for which the IC50 on PIK3CD (Human) is 0.1 to 1 µM; against PIK3CA (human), greater than 10 µM; against PIK3CB (Human), greater than 10 µM.

For the compound `COc1ccc(-c2cccc3cc([C@H](C)Nc4ncnc5cccnc45)n(-c4ccccc4)c(=O)c23)cn1`, the IC50 against PIK3CD (Human) was less than 0.1 µM; on PIK3CG (human), less than 0.1 µM; against PIK3CB (Human), greater than 10 µM.

Regarding `C[C@H](Nc1nc(N)ncc1C#N)c1cc2cccc(C(F)(F)F)c2c(=O)n1-c1cccc(F)c1`, the IC50 against PIK3CD (Human) is less than 0.1 µM; on PIK3CG (human), less than 0.1 µM; against PIK3CB (Human), 0.1 to 1 µM.

Take `C[C@H](Nc1ccnn2ccnc12)c1cc2scc(Cl)c2c(=O)n1-c1ccccc1`: the IC50 at PIK3CD (Human) is less than 0.1 µM; at PIK3CG (human), less than 0.1 µM; at PIK3CB (Human), 0.1 to 1 µM.

`COc1nc(N[C@@H](C)c2cc3cccc(C(F)(F)F)c3c(=O)n2-c2cccc(F)c2)c2ncccc2n1`: the IC50 against PIK3CD (Human), against PIK3CA (human) and on PIK3CB (Human) was greater than 10 µM each time.

For `C[C@H](Nc1ccnc2cccnc12)c1cc2cccc(C(F)(F)F)c2c(=O)n1-c1ccccc1`, the results for the IC50 at PIK3CD (Human), against PIK3CA (human) and on PIK3CG (human) were less than 0.1 µM, greater than 10 µM and less than 0.1 µM, respectively.

For the compound `C[C@H](Nc1ncnc(N)c1C#N)c1cc2cccc(C(F)(F)F)c2c(=O)n1-c1cccc(F)c1`, the IC50 is less than 0.1 µM against PIK3CD (Human), less than 0.1 µM at PIK3CG (human) and 0.1 to 1 µM against PIK3CB (Human).

As for `Cc1nsc2cc(C(C)Nc3ncnc4cccnc34)n(-c3ccccc3)c(=O)c12` (stereo not given), the figures for the IC50 at PIK3CD (Human), on PIK3CA (human) and on PIK3CB (Human) were 0.1 to 1 µM, greater than 10 µM and greater than 10 µM, respectively.

Regarding `C[C@H](Nc1ncnc2[nH]cc(C(N)=O)c12)c1cc2cccc(C(F)(F)F)c2c(=O)n1-c1ccccc1`, the IC50 against PIK3CD (Human) was less than 0.1 µM; on PIK3CG (human) it was less than 0.1 µM; at PIK3CB (Human) it was 0.1 to 1 µM.

In the case of `Cc1ccnc2cc(C(C)Nc3ncnc4cccnc34)n(-c3ccccc3)c(=O)c12` (stereo not given), the IC50 was less than 0.1 µM at PIK3CD (Human), greater than 10 µM on PIK3CA (human) and 0.1 to 1 µM on PIK3CG (human).

Take `C[C@H](Nc1nc(N)nc2cccnc12)c1cc2cccc(-c3cnn(C)c3)c2c(=O)n1C1CC1`: the values for the IC50 at PIK3CD (Human), against PIK3CA (human) and on PIK3CG (human) were less than 0.1 µM, 0.1 to 1 µM and less than 0.1 µM, respectively.

For the compound `Cc1cc(-c2cccc3cc([C@H](C)Nc4ncnc5cccnc45)n(-c4ccccc4)c(=O)c23)cnc1C`, the IC50 is less than 0.1 µM against PIK3CD (Human), 0.1 to 1 µM against PIK3CG (human) and greater than 10 µM on PIK3CB (Human).

Turning to `C[C@H](Nc1cc(N)nc2ccnn12)c1cc2cccc(Cl)c2c(=O)n1-c1ccccc1`, the IC50 against PIK3CD (Human) was less than 0.1 µM; on PIK3CA (human) it was greater than 10 µM; against PIK3CG (human), less than 0.1 µM.

With `C[C@H](Nc1c(C#N)cnc2cccnc12)c1cc2cccc(C(F)(F)F)c2c(=O)n1-c1ccccc1`, the IC50 against PIK3CD (Human), at PIK3CA (human) and on PIK3CB (Human) was greater than 10 µM throughout.

The term IC50 denotes the midpoint of a concentration-inhibition curve. A higher IC50 goes with a need for much substance.
